Several values for one entry are separate records, joined by “and”; a condition that tells them apart may be missing. Equal values may be shown once. Where a name gives a salt, the structure may show the parent alone. Read-outs that look alike come from different tables or passages of the source.
Key:
[1] = test system: HCoV-OC43; test: OC43 CPE assay in Huh-7 cells (neutral red uptake); format: cell-based, Human coronavirus OC43; settings: for Raw OD - Absorbance 490 nm: infected Huh-7, neutral red uptake, individual replicate; for EC50: Betacoronavirus 1, OC43, 144 h, 6 days, neutral red uptake
[2] = test system: HCoV-OC43 (Betacoronavirus 1); test: microbe, parasite or virus in culture; format: cell-based; settings: for EC50: read-out: Efficacy
[3] = test system: H292 cells (NCI-H292); test: Cytotoxicity in uninfected H292 cells (MTT)
[4] = test system: alpha coronavirus 229E (CoV-229E); test: Inhibition of CoV-229E-induced CPE in MRC-5 cells (XTT); settings: CPE reduction, CoV-229E in MRC-5 cells, 6 days
[5] = in vitro; settings: human
[6] = test system: Huh-7 cells; test: Cytotoxicity / viability of uninfected Huh-7 cells (XTT); settings: for Viability of Huh-7 Cells (A490): 6 days, individual raw data; for Viability (A490): cytotoxic control, raw data, Huh-7
[7] = as above; settings: human, uninfected Huh-7 cells
[8] = in vitro; settings: human; remark: listed apart in the source
[9] = Betacoronavirus 1, OC43, NCI-H292, 144 h
[10] = CC50, uninfected H292 cells, MTT, 6 days
[11] = Betacoronavirus 1, OC43, Huh-7, 0.01 μM, average ± SD of duplicates, read-out: Inhibition of OC43 Virus-Induced CPE in Huh-7 Cells
[12] = Betacoronavirus 1, OC43, Huh-7, 0.04 μM, average ± SD of duplicates, read-out: Inhibition of OC43 Virus-Induced CPE in Huh-7 Cells
[13] = Betacoronavirus 1, OC43, Huh-7, 0.12 μM, average ± SD of duplicates, read-out: Inhibition of OC43 Virus-Induced CPE in Huh-7 Cells
[14] = Betacoronavirus 1, OC43, Huh-7, 0.4 μM, average ± SD of duplicates, read-out: Inhibition of OC43 Virus-Induced CPE in Huh-7 Cells
[15] = Betacoronavirus 1, OC43, Huh-7, 1.1 μM, average ± SD of duplicates, read-out: Inhibition of OC43 Virus-Induced CPE in Huh-7 Cells
[16] = Betacoronavirus 1, OC43, Huh-7, 10 μM, average ± SD of duplicates, read-out: Inhibition of OC43 Virus-Induced CPE in Huh-7 Cells
[17] = Betacoronavirus 1, OC43, Huh-7, 30 μM, average ± SD of duplicates, read-out: Inhibition of OC43 Virus-Induced CPE in Huh-7 Cells
[18] = Betacoronavirus 1, NCI-H292, 144 h, EC50, HCoV-OC43-infected H292 cells, MTT, 6 days

CCN(CC)CCCC(C)Nc1ccnc2cc(Cl)ccc12 (stereo not drawn) [Chloroquine]
prevention of virus-induced CPE ([1]; 6-day assay, Huh-7 cells): potently prevented the virus-induced CPE
inhibition at 5 µM ([1]; Betacoronavirus 1, OC43, Huh-7, read-out: Inhibition of OC43 Virus-Induced CPE in Huh-7 Cells, 5 μM, control inhibitor, relative to uninfected cells (mock)): ~88%
EC50 [2, 9]: 400 nM
antiviral effect against β-coronavirus OC43 in H292 cells ([2]; 6 days): antiviral effect
Cytotoxicity [3, 10]: 46.04 µM
EC50 [4]: 490 nM

COc1ncccc1-c1cnn2ccc(N3CCN(C(=O)OC4(C)COC4)CC3)nc12 [Compound 1, 3-methyloxetan-3-yl-4-(3-(2-methoxypyridin-3-yl)pyrazolo[1,5-a]pyrimidin-5-yl)piperazine-1-carboxylate]
Raw OD - Absorbance 490 nm ([1]; 0.01 μM, listed as Compd. 1): 0.102 and 0.108
Raw OD - Absorbance 490 nm ([1]; 0.04 μM, listed as Compd. 1): 0.100 and 0.097
Raw OD - Absorbance 490 nm ([1]; 0.12 μM, listed as Compd. 1): 0.092 and 0.094
Raw OD - Absorbance 490 nm ([1]; 0.4 μM, listed as Compd. 1): 0.087 and 0.096
Raw OD - Absorbance 490 nm ([1]; 1.1 μM, listed as Compd. 1): 0.102 and 0.104
Raw OD - Absorbance 490 nm ([1]; 3.3 μM, listed as Compd. 1): 0.105 and 0.103
Raw OD - Absorbance 490 nm ([1]; 10 μM, listed as Compd. 1): 0.115 and 0.117
antiviral effect at 30 μM ([1]; 30 μM, Huh-7 cells, likely due to compound-induced toxicity): disappeared
Raw OD - Absorbance 490 nm ([1]; 30 μM, listed as Compd. 1): 0.076 and 0.072
EC50 ([1]; Huh-7 cells): > 30000 nM
inhibition at 0.01 µM [1, 11]: -0.2 ± 0.6%
inhibition at 0.04 µM [1, 12]: -0.8 ± 0.4%
inhibition at 0.12 µM [1, 13]: -1.7 ± 0.2%
inhibition at 0.4 µM [1, 14]: -1.9 ± 0.8%
inhibition at 1.1 µM [1, 15]: -0.2 ± 0.2%
inhibition at 3.3 µM ([1]; Betacoronavirus 1, OC43, Huh-7, 3.3 μM, average ± SD of duplicates, read-out: Inhibition of OC43 Virus-Induced CPE in Huh-7 Cells): 0%
inhibition at 10 µM [1, 16]: 1.8 ± 0.3%
inhibition at 30 µM [1, 17]: -4.5 ± 0.5%
EC50 [2, 18]: 9310 nM
antiviral effect against β-coronavirus OC43 in H292 cells ([2]; 6 days): significant antiviral effect
viability of infected H292 cells ([2]; HCoV-OC43 infected, FIG. 6): increased with increased concentrations
viability at 6 days, 0.01 µM [5]: 96.9 ± 0.8%
viability at 6 days, 0.04 µM [5]: 100.4 ± 0.7%
viability at 6 days, 0.12 µM [5]: 91.4 ± 1.8%
viability at 6 days, 0.37 µM [5]: 88.8 ± 2.2%
viability at 6 days, 1.1 µM [5]: 104 ± 2.9%
viability at 6 days, 3.3 µM [5]: 113 ± 4.4%
viability at 6 days, 10 µM [5]: 117 ± 4.5%
viability at 6 days, 30 µM [5]: 111 ± 5.3%
viability at 6 days, 90 µM [5]: 57.1 ± 4.9%
Cytotoxicity [3, 10]: >300 µM
viability of uninfected H292 cells ([3]; with increased concentrations, FIG. 6): did not change significantly
EC50 [4]: > 10000 nM
Viability of Huh-7 Cells (A490) ([6]; 0.01 μM, XTT, listed as Compd. 1): 0.724 and 0.716
Viability of Huh-7 Cells (A490) ([6]; 0.04 μM, XTT, listed as Compd. 1): 0.748 and 0.941
Viability of Huh-7 Cells (A490) ([6]; 0.12 μM, XTT, listed as Compd. 1): 0.673 and 0.691
Viability of Huh-7 Cells (A490) ([6]; 0.37 μM, XTT, listed as Compd. 1): 0.675 and 0.654
Viability of Huh-7 Cells (A490) ([6]; 1.1 μM, XTT, listed as Compd. 1): 0.758 and 0.786
Viability of Huh-7 Cells (A490) ([6]; 3.3 μM, XTT, listed as Compd. 1): 0.807 and 0.850
Viability of Huh-7 Cells (A490) ([6]; 10 μM, XTT, listed as Compd. 1): 0.878 and 0.834
Viability of Huh-7 Cells (A490) ([6]; 30 μM, XTT, listed as Compd. 1): 0.844 and 0.792
Viability of Huh-7 Cells (A490) ([6]; 90 μM, XTT, listed as Compd. 1): 0.421 and 0.469

CC[C@H]1CN2CCc3cc(OC)c(OC)cc3[C@@H]2C[C@@H]1C[C@H]1NCCc2cc(OC)c(OC)cc21 [Emetine]
cytotoxicity at 6 days, 5 μM [7]: > 90%
viability at 6 days, 1 µM [7]: 18.3 ± 0.3%
viability at 6 days, 5 µM [7]: 8.2 ± 0.7%
Viability (A490) ([6]; 1 μm): 0.176 and 0.179
Viability (A490) ([6]; 5 μm): 0.104 and 0.111
inhibition of cell viability ([6]; tested at 5 μM, XTT): more than 90%

CCC(CC)COC(=O)[C@H](C)N[P@](=O)(OC[C@H]1O[C@@](C#N)(c2ccc3c(N)ncnn23)[C@H](O)[C@@H]1O)Oc1ccccc1 [Remdesivir]
EC50 [2, 9]: 37500 nM
CC50 at 6 days [8]: > 2000 nM
Cytotoxicity [3, 10]: >20 µM
EC50 [4]: 130 nM

CCN(CC)CCNC(=O)c1c(C)[nH]c(/C=C2\C(=O)Nc3ccc(F)cc32)c1C [Sunitinib maleate, sunitinib malate]
Raw OD - Absorbance 490 nm ([1]; 0.01 μM): 0.120
Raw OD - Absorbance 490 nm ([1]; 0.04 μM): 0.094
Raw OD - Absorbance 490 nm ([1]; 0.4 μM): 0.086 and 0.090
Raw OD - Absorbance 490 nm ([1]; 1.1 μM): 0.094
Raw OD - Absorbance 490 nm ([1]; 3.3 μM): 0.312 and 0.136
Raw OD - Absorbance 490 nm ([1]; 10 μM): 0.214 and 0.280
Raw OD - Absorbance 490 nm ([1]; 30 μM): 0.051 and 0.053
EC50 ([1]; Huh-7 cells): > 30000 nM
inhibition at 3.3 µM ([1]; Betacoronavirus 1, OC43, Huh-7, read-out: Inhibition of OC43 Virus-Induced CPE in Huh-7 Cells): 17.9 ± 18.5%
inhibition at 0.01 µM [1, 11]: 1.1 ± 1.9%
inhibition at 0.04 µM [1, 12]: -1.2 ± 0.4%
inhibition at 0.12 µM [1, 13]: -0.1 ± 0.4%
inhibition at 0.4 µM [1, 14]: -2.4 ± 0.4%
inhibition at 1.1 µM [1, 15]: -1 ± 0.8%
inhibition at 10 µM [1, 16]: 21.4 ± 7%
inhibition at 30 µM [1, 17]: -7.8 ± 0.2%
CC50 at 6 days [5]: 13000 nM
viability at 6 days, 0.01 µM [5]: 92 ± 7.2%
viability at 6 days, 0.04 µM [5]: 100 ± 1.3%
viability at 6 days, 0.12 µM [5]: 99.1 ± 3.4%
viability at 6 days, 0.37 µM [5]: 101 ± 3.4%
viability at 6 days, 1.1 µM [5]: 89.7 ± 1.1%
viability at 6 days, 3.3 µM [5]: 82.6 ± 4.2%
viability at 6 days, 10 µM [5]: 72 ± 1.1%
viability at 6 days, 30 µM [5]: 0.8 ± 0.3%
viability at 6 days, 90 µM [5]: 0.4 ± 0.1%
Viability of Huh-7 Cells (A490) ([6]; 0.01 μM, XTT): 0.721 and 0.651
Viability of Huh-7 Cells (A490) ([6]; 0.04 μM, XTT): 0.738 and 0.751
Viability of Huh-7 Cells (A490) ([6]; 0.12 μM, XTT): 0.719 and 0.752
Viability of Huh-7 Cells (A490) ([6]; 0.37 μM, XTT): 0.732 and 0.765
Viability of Huh-7 Cells (A490) ([6]; 1.1 μM, XTT): 0.676 and 0.665
Viability of Huh-7 Cells (A490) ([6]; 3.3 μM, XTT): 0.642 and 0.601
Viability of Huh-7 Cells (A490) ([6]; 10 μM, XTT): 0.543 and 0.554
Viability of Huh-7 Cells (A490) ([6]; 30 μM, XTT): 0.058 and 0.055
Viability of Huh-7 Cells (A490) ([6]; 90 μM, XTT): 0.053 and 0.054

CCN(CC)CCNC(=O)c1c(C)[nH]c(/C=C2\C(=O)Nc3ccc(F)cc32)c1C [Sunitinib]
EC50 [2, 18]: 406 nM
CC50 at 6 days ([8]; uninfected MRC-5 cells): 1320 nM
Cytotoxicity [3]: 10 to 50 µM

Source: patent US11666575B2, “Pyrazolo[1,5]pyrimidine-based compounds and methods of their use to treat viral infections” (Lexicon Pharmaceuticals, Inc., priority 2020, dated 2023)
